From patent publication US12209074B2, “SHP2 phosphatase allosteric inhibitor” (BEIJING SHENOGEN PHARMA GROUP LTD., priority 2019, dated 2025)

Columns and labels:
SHP2 = SHP2 (Homo sapiens (Human), UniProt Q06124); assay: Detection of in vitro SHP2 protein activity by DiFMUP fluorescence; type: biochemical; details: read-out: Phosphatase activity SHP2 IC50; DiFMUP substrate, fluorescence Ex340/Em450, 60 min pre-incubation with polypeptide; read-out: Proteinase activity SHP2 IC50
From the text: The screening method of SHP2 protein activity was established by fluorescence detection. The basic principle is: SHP2 as phosphatase can catalyze the dephosphorization of DiFMUP to form DiFMU and free phosphate groups. The product DiFMU emits fluorescence under 340 nm excitation, and 450 nm emission is collected. If the binding of small molecule compounds with SHP2 can inhibit the activity of SHP2 enzyme, the 450 nm emission light detected will be weakened, and the activity of SHP2 enzyme will be finally reflected by the intensity of fluorescence value.
The specific operation was as follows: the 10 mM compound stock solution was diluted to 1 mM with DMSO, and then diluted 3 times with DMSO. 95 μL reaction buffer (60 mM HEPES), 75 mM NaCl, 75 mM KCl, 1 mM EDTA, 5 mM DTT, 1 μL gradient diluted compound, 2 μL SHP2 (concentration was 2 μg/μL) and 1 μL polypeptide (concentration was 50 mM) were added into each well of a 96 well flat clear bottom black plate (costar, 3603). The above test mixture was incubated at room temperature in dark for 60 minutes. Then 2 μL of 10 mM DiFMUP was added into each well, and was incubated at room temperature for 30 minutes. Fluorescence value was determined in the enzyme reader at Ex340/Em450. IC50 of the compounds was obtained by the data analysis software Prism.

[1] = tested on: Human non-small cell lung cancer NCI-H358; assay: Cell proliferation assay (CellTiter-Glu) in NCI-H358; type: cell-based; details: 5 days, NCI-H358 cells, cell viability by CellTiter-Glu, compound 0.3 nM-2 μM, medium and compound renewed after 3 days
Description: Cell proliferation inhibition screening method was established by CellTier-Glu® test reagent from Promega.
Human non-small cell lung cancer NCI-H358 was cultured by RPMI-1640 (Gibco®) medium with 10% fetal bovine serum (Gibco®) at 37° C., 95% air and 5% CO2, in 25 cm^2 or 75 cm^2 plastic culture bottle ((Nunc®) and passaged 2-3 times a week.
The cells were seeded on the 96 well cell culture plate (Nunc®) at the density of 2*10^3/well, 90 μL/well, and cultured at 37° C., 95% air and 5% CO2. The compound to be tested was added 24 hours later: the compound was diluted 3 times with DMSO from the concentration of 2 mM compound (dissolved in DMSO). […] 10 μL of the compound diluted by culture medium was added into the culture plate seeded with cells. The final concentration of DMSO in cell culture medium was 0.1%, and the final concentration of test compound was 0.3 nM-2 μM. The cells were incubated at 37° C. for 3 days. The culture medium was substituted with 90 μL/well fresh complete medium. According to the above diluting method of compounds, the compound to be tested was added.
After 5 days, cell viability was tested by CellTiter-Glu (Promega) kit, and finally, the semi-inhibitory concentration of compounds on cell proliferation, i.e. IC50 was calculated by Prism program.

hERG channel = hERG channel (Homo sapiens (Human), UniProt Q12809); assay: hERG inhibitory activity, whole cell patch clamp in hERG-transfected HEK293 cells; type: cell-based; details: HEK293 cells transfected with hERG, tail current, tested at 30, 10, 2, 0.5, 0.1 μM
Description: Patch Clamp Amplifier System (Multiclamp 700B Amplifier) (AXON), Olympus microscope (Olympus IX51/71/73), and MP285 micromanipulator were used.
HEK293 cell line for transfecting hERG was purchased from Invitrogen Company. The cells were grown in the culture medium with 85% DMEM, 10% fetal bovine serum, 0.1 mM NEAA, 25 mM HEPES buffer, 100 U/mL penicillin-streptomycin, 5 μg/mL blasticidin and 400 μg/mL G418 geneticin.
The cells were passaged three times a week and digested with TrypLE Express to maintain a fusion degree of about 40% to 80%. Before testing, the cells were seeded at the density of 5*10^5 cells/petri dish with a diameter of 6 cm and the cells were induced with 1 μg/ml doxycycline for 48 hours.
The test concentration of the compound solution was 30, 10, 2, 0.5, 0.1 μM after 1000-fold dilution and the final concentration of DMSO was in the range of 0.1%.
The manipulator was adjusted to move the electrode tip to the cell surface to form a high sealing. Liquid connection potential and fast capacitance were compensated, and the cell membrane was broken to form a whole cell recording mode. The membrane potential was set as −60 mV to ensure that the HERG channel was not opened. Cslow on the amplifier was used to eliminate the peak of capacity current. Holding voltage was set as […]. The leakage current test was performed at −80 mV for 500 ms. +30 mV was depolarized for 4.8 seconds, and HERG channel was activated. The voltage was restored to −50 mV for 5.2 seconds, and the tail current was observed. Peak current suppression=[1−(peak tail currentinhibitor−peak tail currentpositive control)/(peak tail currentblank−peak tail currentpositive control)]*100
The dose response curve of hERG current inhibition rate versus the concentration of the tested compound was plotted by using Graphpad Prism 8.0 software.

Sequence of hERG channel (Q12809 whole entry): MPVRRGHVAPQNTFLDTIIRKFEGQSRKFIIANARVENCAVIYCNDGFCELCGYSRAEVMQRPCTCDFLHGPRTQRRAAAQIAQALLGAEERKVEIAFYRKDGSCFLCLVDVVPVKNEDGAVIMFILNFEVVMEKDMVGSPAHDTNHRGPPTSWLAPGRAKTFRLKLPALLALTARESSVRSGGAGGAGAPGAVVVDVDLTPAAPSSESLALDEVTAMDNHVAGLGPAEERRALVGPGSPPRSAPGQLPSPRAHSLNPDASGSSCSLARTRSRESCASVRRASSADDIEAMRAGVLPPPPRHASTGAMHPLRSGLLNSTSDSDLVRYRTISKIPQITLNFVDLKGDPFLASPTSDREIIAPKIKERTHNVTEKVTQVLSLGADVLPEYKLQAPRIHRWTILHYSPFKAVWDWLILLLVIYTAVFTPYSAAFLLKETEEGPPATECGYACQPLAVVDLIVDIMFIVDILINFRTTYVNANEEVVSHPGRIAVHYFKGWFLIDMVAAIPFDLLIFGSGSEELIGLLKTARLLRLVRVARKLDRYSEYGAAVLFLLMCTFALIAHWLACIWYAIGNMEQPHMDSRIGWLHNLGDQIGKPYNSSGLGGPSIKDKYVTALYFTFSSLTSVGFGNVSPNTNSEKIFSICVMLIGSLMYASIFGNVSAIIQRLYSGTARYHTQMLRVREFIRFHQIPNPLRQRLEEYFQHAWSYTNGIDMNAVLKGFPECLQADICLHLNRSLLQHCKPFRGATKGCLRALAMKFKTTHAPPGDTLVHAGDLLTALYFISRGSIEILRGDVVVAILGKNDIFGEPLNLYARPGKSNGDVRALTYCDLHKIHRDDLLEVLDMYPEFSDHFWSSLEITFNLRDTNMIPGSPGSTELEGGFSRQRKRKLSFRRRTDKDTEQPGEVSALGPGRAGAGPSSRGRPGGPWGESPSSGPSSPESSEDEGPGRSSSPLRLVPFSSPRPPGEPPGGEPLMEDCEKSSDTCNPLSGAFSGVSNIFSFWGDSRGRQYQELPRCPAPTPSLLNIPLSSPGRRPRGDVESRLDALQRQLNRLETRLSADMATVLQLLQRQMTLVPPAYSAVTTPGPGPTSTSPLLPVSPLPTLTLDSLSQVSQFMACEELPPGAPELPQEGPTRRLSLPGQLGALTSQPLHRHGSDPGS

Structure (SMILES) | IC50 (SHP2) [nM] | IC50 [1] [nM] | IC50 (hERG channel) [nM]
Cc1nc(N2CCC3(CC2)Cc2ccccc2[C@H]3N)c(CO)nc1-c1cccc(Cl)c1Cl [Compound 1, (S)-(3-(1-amino-1,3-dihydrospiro[indene-2,4′-piperidin]-1′-yl)-6-(2,3-dichlorophenyl)-5-methylpyrazin-2-yl)methanol] | 9 | 88 | < 100
Cc1nc(N2CCC3(CC2)Cc2ccc(C#N)cc2[C@H]3N)c(CO)nc1-c1cccc(Cl)c1Cl [Compound 2, (S)-1-amino-1′-(5-(2,3-dichlorophenyl)-3-(hydroxymethyl)-6-methylpyrazin-2-yl)-1,3-dihydrospiro[indene-2,4′-piperidine]-6-carbonitrile] | 35 | 84 | 
Cc1nc(N2CCC3(CC2)Cc2ccccc2[C@H]3N)c(CO)nc1-c1cc(N)nc(Cl)c1Cl [Compound 47] |  | 30 | 4290
Cc1cnc2c(c1)[C@@H](N)C1(CCN(c3nc(C)c(-c4ccnc(Cl)c4Cl)nc3CO)CC1)C2 [Compound 49] |  | 28 | 1800
COc1ccc2c(c1)[C@@H](N)C1(CCN(c3nc(C)c(-c4ccnc(Cl)c4Cl)nc3CO)CC1)C2 [Compound 72] |  | 65.9 | 2590
Cc1nc(N2CCC3(CC2)Cc2ccccc2[C@H]3N)c(CO)nc1-c1ccnc(C#N)c1Cl [Compound 77] |  | 33 | 620

The next compounds have a lower IC50 [1] than those just listed; values first:

IC50 (SHP2) [nM] | IC50 [1] [nM] | Structure (SMILES) | IC50 (hERG channel) [nM]
 | 25 | COc1nccc(-c2nc(CO)c(N3CCC4(CC3)Cc3ncc(C)cc3[C@H]4N)nc2C)c1Cl [Compound 76] | 2110
 | 22 | Cc1cnc2c(c1)[C@@H](N)C1(CCN(c3nc(C)c(-c4cc(N)nc(Cl)c4Cl)nc3CO)CC1)C2 [Compound 64] | 6130
 | 15 | Cc1nc(N2CCC3(CC2)Cc2ccccc2[C@H]3N)c(CO)nc1-c1ccnc(C(F)(F)F)c1Cl [Compound 62] | 4230
 | 11 | Cc1ccc2c(c1)[C@@H](N)C1(CCN(c3nc(C)c(-c4ccnc(Cl)c4Cl)nc3CO)CC1)C2 [Compound 21] | 3030
 | 1.6 | Cc1nc(N2CCC3(CC2)Cc2ncccc2[C@H]3N)c(CO)nc1-c1cccc(Cl)c1Cl [Compound 13, (S)-(3-(5-amino-5,7-dihydrospiro[cyclopenta[b]pyridine-6,4′-piperidin]-1′-yl)-6-(2,3-dichlorophenyl)-5-methylpyrazin-2-yl)methanol] | < 100
